Laboratory results reported in ChEMBL document CHEMBL1201862, “PubChem BioAssay data set” (2004).
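Protocol summary: plate cells (96-well), add compound at 5 concentrations, incubate 48 h, interpolate endpoints linearly. GI50 marks 50% less growth.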 The source made the active and inactive calls. No stated cut-off is given here; in the data, active = GI50 up to about 1.1 µM and inactive = higher.

Columns and labels:
Assay in all cases: inhibition of tumour cell growth, NCI panel, 48 h
[1] = tested on: SN12C
[2] = tested on: SR
[3] = tested on: SK-MEL-28
[4] = tested on: NCI-H226
[5] = tested on: A549
[6] = tested on: OVCAR-5
[7] = tested on: HL-60
[8] = tested on: NCI/ADR-RES
[9] = tested on: U-251
[10] = tested on: SK-MEL-5
[11] = tested on: CCRF-CEM
[12] = tested on: CAKI-1
[13] = tested on: HCT-15
[14] = tested on: OVCAR-3
[15] = tested on: PC-3
[16] = tested on: COLO 205
[17] = tested on: HT-29
[18] = tested on: NCI-H460
[19] = tested on: UACC-62
[20] = tested on: SK-OV-3

| SMILES | GI50 [1] | GI50 [2] | GI50 [3] | GI50 [4] | GI50 [5] | GI50 [6] | GI50 [7] | GI50 [8] | GI50 [9] | GI50 [10] | GI50 [11] | GI50 [12] | GI50 [13] [µM] | GI50 [14] | GI50 [15] | GI50 [16] | GI50 [17] | GI50 [18] | GI50 [19] | GI50 [20] |
| --- | --- | --- | --- | --- | --- | --- | --- | --- | --- | --- | --- | --- | --- | --- | --- | --- | --- | --- | --- | --- |
| CC(=O)O[C@@H](c1nccn1Cc1ccccc1)[C@H]1OC(C)(C)O[C@@H]1[C@H]1COC(C)(C)O1 | > 100 µM (inactive) | > 10 µM (inactive) | > 100 µM (inactive) | > 100 µM (inactive) | > 100 µM (inactive) | > 100 µM (inactive) | > 100 µM (inactive) | > 100 µM (inactive) | > 100 µM (inactive) | > 100 µM (inactive) | > 100 µM (inactive) | > 100 µM (inactive) | > 100 | > 100 µM (inactive) | > 100 µM (inactive) | > 100 µM (inactive) | > 100 µM (inactive) | > 100 µM (inactive) | > 100 µM (inactive) | – |
| C=CC(C)(C)c1cc([C@@H]2COc3cc(O)ccc3C2=O)c(O)c(OC)c1OC | 16.3 µM (inactive) | 8.18 µM (inactive) | 19.5 µM (inactive) | 16.5 µM (inactive) | 15.8 µM (inactive) | 17.1 µM (inactive) | 6.75 µM (inactive) | 12.6 µM (inactive) | 13.5 µM (inactive) | 10.4 µM (inactive) | 16.6 µM (inactive) | – | 14 | 10.5 µM (inactive) | 12.9 µM (inactive) | 22 µM (inactive) | 20.5 µM (inactive) | 17.4 µM (inactive) | 13 µM (inactive) | 14.6 µM (inactive) |
| O=c1[nH]c(=O)n(C/C=C/CO)nc1Br | > 100 µM (inactive) | > 100 µM (inactive) | > 100 µM (inactive) | > 100 µM (inactive) | > 100 µM (inactive) | > 100 µM (inactive) | > 100 µM (inactive) | > 100 µM (inactive) | > 100 µM (inactive) | > 100 µM (inactive) | > 100 µM (inactive) | > 100 µM (inactive) | > 100 | > 100 µM (inactive) | > 100 µM (inactive) | > 100 µM (inactive) | > 100 µM (inactive) | > 100 µM (inactive) | > 100 µM (inactive) | – |
| O=C(/C=C/c1csc(-c2ccccc2)n1)NCc1ccc(C(=O)NCCc2ccccc2)cc1 | 44.9 µM (inactive) | > 100 µM (inactive) | 24 µM (inactive) | 25.5 µM (inactive) | 26.7 µM (inactive) | 73.3 µM (inactive) | – | 11.6 µM (inactive) | 5.16 µM (inactive) | 69.5 µM (inactive) | > 100 µM (inactive) | 15.6 µM (inactive) | 93.5 | 63.8 µM (inactive) | 49.4 µM (inactive) | 42.1 µM (inactive) | 5.09 µM (inactive) | 55.3 µM (inactive) | 31.8 µM (inactive) | 12.3 µM (inactive) |
| CC[N+](C)(CC)CCC(O)(c1ccccc1)c1ccccc1 | > 100 µM (inactive) | > 100 µM (inactive) | > 100 µM (inactive) | > 100 µM (inactive) | > 100 µM (inactive) | > 100 µM (inactive) | > 100 µM (inactive) | > 100 µM (inactive) | > 100 µM (inactive) | > 100 µM (inactive) | > 100 µM (inactive) | – | > 100 | > 100 µM (inactive) | > 100 µM (inactive) | > 100 µM (inactive) | > 100 µM (inactive) | > 100 µM (inactive) | > 100 µM (inactive) | > 100 µM (inactive) |
| CC(C)CC(NC(=O)C(CI)Cc1ccccc1)C(=O)Nc1ccccc1 (stereo not given) | > 100 µM (inactive) | 68.9 µM (inactive) | > 100 µM (inactive) | – | > 100 µM (inactive) | > 100 µM (inactive) | > 100 µM (inactive) | > 100 µM (inactive) | > 100 µM (inactive) | > 100 µM (inactive) | > 100 µM (inactive) | > 100 µM (inactive) | > 100 | > 100 µM (inactive) | > 100 µM (inactive) | > 100 µM (inactive) | – | > 100 µM (inactive) | > 100 µM (inactive) | > 100 µM (inactive) |
| COc1ccc2c(c1)CC[C@@H]1[C@@H]2CC[C@]2(C)C(=O)/C(=C/c3ccncc3)C[C@@H]12 | 55.6 µM (inactive) | 47.2 µM (inactive) | 33.6 µM (inactive) | 63 µM (inactive) | 30.8 µM (inactive) | 48.9 µM (inactive) | – | 48.8 µM (inactive) | 54.3 µM (inactive) | 20.2 µM (inactive) | > 100 µM (inactive) | 46.5 µM (inactive) | 41.4 | 17.8 µM (inactive) | 29.3 µM (inactive) | 25.3 µM (inactive) | 33.1 µM (inactive) | 27.8 µM (inactive) | 31.6 µM (inactive) | 32.9 µM (inactive) |
| O=C(O)c1ccccc1/C=C1/Cc2ccc3c(c2C1=O)CCC3 | 51.8 µM (inactive) | 39.1 µM (inactive) | 42.8 µM (inactive) | 36.2 µM (inactive) | 44.7 µM (inactive) | 20.9 µM (inactive) | 20.1 µM (inactive) | 50.2 µM (inactive) | 27.6 µM (inactive) | 18.2 µM (inactive) | 38.9 µM (inactive) | > 100 µM (inactive) | 33.6 | 31.8 µM (inactive) | 42.9 µM (inactive) | 19.1 µM (inactive) | 44.7 µM (inactive) | 45.4 µM (inactive) | 38.9 µM (inactive) | – |
| Fc1cccc(F)c1C1SCc2nc3ccc(Cl)cc3n21 (stereo not given) | > 100 µM (inactive) | 48.4 µM (inactive) | > 100 µM (inactive) | – | > 100 µM (inactive) | > 100 µM (inactive) | 40.5 µM (inactive) | > 100 µM (inactive) | > 100 µM (inactive) | 85.3 µM (inactive) | > 100 µM (inactive) | > 100 µM (inactive) | > 100 | > 100 µM (inactive) | > 82.8 µM (inactive) | > 100 µM (inactive) | > 85.7 µM (inactive) | > 100 µM (inactive) | > 100 µM (inactive) | > 100 µM (inactive) |
| Cc1c(F)c(NC(=O)CN(C)C)c2c(=O)cc(-c3ccc(NC(=O)CN(C)C)c(F)c3)oc2c1F | 17.8 µM (inactive) | 1.5 µM (inactive) | 21.5 µM (inactive) | 12.6 µM (inactive) | 18.6 µM (inactive) | 22.8 µM (inactive) | 17.1 µM (inactive) | 14.8 µM (inactive) | 14.2 µM (inactive) | 15 µM (inactive) | 21.5 µM (inactive) | 10.9 µM (inactive) | 14.5 | – | 16 µM (inactive) | 10.9 µM (inactive) | 14.6 µM (inactive) | 9.35 µM (inactive) | 19.1 µM (inactive) | 16.8 µM (inactive) |
| O=C1CC(CC(O)C(O)C(O)CO)CC(=O)N1 (stereo not given) | > 100 µM (inactive) | > 100 µM (inactive) | > 100 µM (inactive) | > 100 µM (inactive) | > 100 µM (inactive) | > 100 µM (inactive) | > 100 µM (inactive) | > 100 µM (inactive) | > 100 µM (inactive) | > 100 µM (inactive) | > 100 µM (inactive) | > 100 µM (inactive) | > 100 | > 100 µM (inactive) | > 100 µM (inactive) | > 100 µM (inactive) | > 100 µM (inactive) | > 100 µM (inactive) | – | – |
| CCOC1=C(c2ccccc2)N2CCCCC2O1 (stereo not given) | 8.85 µM (inactive) | 3.71 µM (inactive) | 12.3 µM (inactive) | 3.42 µM (inactive) | 5.57 µM (inactive) | 3.94 µM (inactive) | 1.5 µM (inactive) | 23.7 µM (inactive) | 3.35 µM (inactive) | 1.7 µM (inactive) | 2.94 µM (inactive) | 26.5 µM (inactive) | 29 | 3.79 µM (inactive) | 2.61 µM (inactive) | 2.22 µM (inactive) | 2.99 µM (inactive) | 3.39 µM (inactive) | 3.48 µM (inactive) | – |
| N#CC1=C(N)Nc2nc3ccccc3n2C1c1ccccc1 (stereo not given) | > 100 µM (inactive) | 83.6 µM (inactive) | – | – | 42 µM (inactive) | > 100 µM (inactive) | > 100 µM (inactive) | > 100 µM (inactive) | 42.9 µM (inactive) | 37.6 µM (inactive) | 6.44 µM (inactive) | 46.8 µM (inactive) | 44.7 | 30.5 µM (inactive) | 46.1 µM (inactive) | > 100 µM (inactive) | 33.7 µM (inactive) | 45.7 µM (inactive) | 56.6 µM (inactive) | 83.4 µM (inactive) |
| COc1cc(C2SCCCCCCCCCCSC(c3ccc(O)c(OC)c3)SCCCCCCCCCCS2)ccc1O (stereo not given) | > 100 µM (inactive) | 56.1 µM (inactive) | > 100 µM (inactive) | > 100 µM (inactive) | > 100 µM (inactive) | > 100 µM (inactive) | – | > 100 µM (inactive) | > 100 µM (inactive) | > 100 µM (inactive) | < 0.01 µM (active) | > 100 µM (inactive) | > 100 | – | > 100 µM (inactive) | > 100 µM (inactive) | > 100 µM (inactive) | – | > 100 µM (inactive) | > 100 µM (inactive) |
| COCCOC(C)C(=O)C(O)S(=O)(=O)O (stereo not given) | > 100 µM (inactive) | > 100 µM (inactive) | > 100 µM (inactive) | > 100 µM (inactive) | > 100 µM (inactive) | > 100 µM (inactive) | > 100 µM (inactive) | > 100 µM (inactive) | > 100 µM (inactive) | > 100 µM (inactive) | > 100 µM (inactive) | – | > 100 | > 100 µM (inactive) | > 100 µM (inactive) | > 100 µM (inactive) | > 100 µM (inactive) | > 100 µM (inactive) | > 100 µM (inactive) | > 100 µM (inactive) |
